Marks after values point to notes of the source that are not given here.
Columns and labels:
Assay type in all cases: in vivo
Settings in all cases: 100 = 100% disease control
[1] = tested on: Erysiphe graminis f. sp. tritici; test: Test J: wheat powdery mildew on wheat seedlings, sprayed the day before inoculation, visual disease rating
How it was run: (§1)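 Acetone solution (3% of final volume) of each compound is suspended in 50/50 acetone/water with 250 ppm Trem® 014. Plants are sprayed to run-off at 200 ppm, equivalent to 500 g/ha, or at 40 ppm for starred values.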

[2] = tested on: Puccinia recondita f. sp. tritici; test: Test I: wheat leaf rust on wheat seedlings, sprayed the day before inoculation, visual disease rating
How it was run: as §1

[3] = tested on: Botrytis cinerea; test: Test C: tomato Botrytis on tomato seedlings, sprayed the day before inoculation, visual disease rating
How it was run: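 Disease ratings refer to tomato seedlings treated by run-off spraying with compound suspensions, mostly 200 ppm (500 g/ha equivalent) and in marked cases 40 ppm. Carrier: acetone/purified water 50/50 with 250 ppm polyhydric alcohol ester surfactant, after predissolving in acetone.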

[4] = tested on: Septoria nodorum; test: Test F: wheat glume blotch on wheat seedlings, sprayed the day before inoculation, visual disease rating
How it was run: as §1

[5] = tested on: Septoria tritici; test: Test G: wheat leaf blotch on wheat seedlings, sprayed the day before inoculation, visual disease rating
How it was run: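 Disease was rated visually after Septoria tritici inoculation, 48 h saturated incubation at 24°C and 19 days in a 20°C growth chamber. Inoculation followed one day after run-off spraying of seedlings with compound at 200 ppm (≈500 g/ha) or, where marked, 40 ppm, formulated in acetone/water with surfactant.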

[6] = tested on: Alternaria solani; test: Test D: tomato early blight, sprayed the day before inoculation, visual disease rating
How it was run: as §1

[7] = 200 ppm, 0 = no control relative to controls
[8] = 40 ppm (marked *), 0 = no control

| SMILES | Test J disease control rating ([1]; 200 ppm, 0 = no control) [%] | Test I disease control rating ([2]; 200 ppm, 0 = no control) [%] | Test C disease control rating ([3]; 200 ppm, 0 = no control) [%] | Test F disease control rating ([4]; 200 ppm, 0 = no control) [%] | Test G disease control rating ([5]; 200 ppm, 0 = no control) [%] | Test D disease control rating ([6]; 200 ppm, 0 = no control) [%] | Test J disease control rating [1, 7] [%] | Test I disease control rating [2, 7] [%] | Test C disease control rating [3, 7] [%] | Test F disease control rating [4, 7] [%] | Test G disease control rating [5, 7] [%] | Test D disease control rating [6, 7] [%] | further results |
| --- | --- | --- | --- | --- | --- | --- | --- | --- | --- | --- | --- | --- | --- |
| Cc1ccc(-n2c(Br)nc(Cl)c2-c2c(F)cc(F)cc2F)cc1 [compound 153] | 100 | 99 | 98 | 69 | 96 | 100 |  |  |  |  |  |  |  |
| COc1cc(F)c(-c2c(C)nc(Cl)n2-c2ccc(Cl)nc2)c(F)c1 [compound 263] | 100 | 100 | 99 | 100 | 95 | 100 |  |  |  |  |  |  |  |
| Cc1ccc(-n2c(C)nc(Cl)c2-c2c(F)cc(F)cc2F)cc1 [compound 168] | 100 | 100 | 97 | 84 | 98 | 99 |  |  |  |  |  |  |  |
| Cc1nc(Cl)c(-c2c(F)cccc2F)n1Cc1cccc(Cl)c1 [compound 126] |  |  |  |  |  |  | 99 | 99 | 97 | 69 | 96 | 99 |  |
| Fc1ccc(Cl)c(F)c1-c1c(Cl)nc(Br)n1-c1ccc(Cl)cc1 [compound 100] |  |  |  |  |  |  | 99 | 98 | 97 | 99 | 97 | 93 |  |
| Cc1nc(Cl)c(-c2c(F)cccc2F)n1-c1ccc(C(F)(F)F)cc1 [compound 92] |  |  |  |  |  |  | 100 | 89 | 76 | 0 | 98 | 100 |  |
| Fc1ccc(-n2c(Cl)nc(Cl)c2-c2c(F)ccc(F)c2F)cc1 [compound 129] |  |  |  |  |  |  | 95 | 74 | 99 | 0 | 89 | 100 |  |
| Fc1ccc(-n2c(Cl)nc(Cl)c2-c2c(F)cccc2Cl)cc1 [compound 228] | 99 | 94 | 96 | 0 | 98 | 99 |  |  |  |  |  |  |  |
| COc1cc(F)c(-c2c(Cl)nc(Cl)n2-c2cccc(Cl)c2)c(F)c1 [compound 453] |  |  |  |  |  |  | 100 | 100 | 99 |  | 93 | 100 | Test F disease control rating ([4]; 40 ppm (marked *)): 90* % |
| COc1cc(F)c(-c2c(C)ncn2-c2ccc(Cl)c(F)c2)c(F)c1 [compound 46] |  |  |  |  |  |  |  |  |  |  |  |  | Test J disease control rating ([1]; 40 ppm (marked *)): 78* %; Test I disease control rating ([2]; 40 ppm (marked *)): 26* %; Test C disease control rating ([3]; 40 ppm (marked *)): 86* %; Test F disease control rating ([4]; 40 ppm (marked *)): 0* %; Test G disease control rating ([5]; 40 ppm (marked *)): 83* %; Test D disease control rating ([6]; 40 ppm (marked *)): 97* % |
| Fc1cc(-n2c(Br)nc(Cl)c2-c2c(F)cccc2F)ccc1Cl [compound 223] | 100 | 99 | 99 | 60 | 98 | 100 |  |  |  |  |  |  |  |
| Fc1cc(-n2cnc(Cl)c2-c2c(F)ccc(F)c2F)ccc1Cl [compound 124] |  |  |  |  |  |  | 98 | 95 | 98 | 0 | 90 | 97 |  |
| Cc1nc(Cl)c(-c2c(F)cc(O)cc2F)n1-c1ccc(Cl)cc1 [compound 119] |  |  |  |  |  |  | 0 | 80 | 96 | 40 | 91 | 80 |  |
| Cc1c(CCl)sc(-c2cnc(Cl)n2-c2ccc(Cl)cc2)c1Cl [compound 451] |  |  |  |  |  |  | 0 | 19 | 0 | 0 | 82 | 0 |  |
| Fc1ccc(F)c(-c2c(Cl)nc(Cl)n2-c2ccc(Cl)c(Cl)c2)c1F [compound 234] | 98 | 55 | 95 | 0 | 98 | 99 |  |  |  |  |  |  |  |
| COc1cc(F)c(-c2c(-c3ccc(Cl)c(F)c3)c(C)nn2C)c(F)c1 [compound 79] |  |  |  |  |  |  | 100 | 92 | 53 | 0 | 95 | 97 |  |
| Cc1nc(C)n(-c2ccc(Cl)cc2)c1-c1c(F)cccc1F [compound 151] |  |  |  |  |  |  |  |  |  |  |  |  | Test J disease control rating [1, 8]: 96* %; Test I disease control rating [2, 8]: 89* %; Test C disease control rating [3, 8]: 97* %; Test F disease control rating [4, 8]: 69* %; Test G disease control rating [5, 8]: 99* %; Test D disease control rating [6, 8]: 100* % |
| Cc1ccc(-n2cnc(Cl)c2-c2c(F)ccc(F)c2Cl)cc1 [compound 177] | 99 | 99 | 88 | 0 | 79 | 0 |  |  |  |  |  |  |  |
| COc1cc(F)c(-c2c(Cl)nc(Cl)n2-c2ccc(Cl)cc2)c(F)c1 [compound 239] | 100 | 99 | 100 | 100 | 96 | 100 |  |  |  |  |  |  |  |
| N#Cc1nc(Cl)c(-c2c(F)ccc(F)c2F)n1-c1ccc(Cl)cc1 [Compound 57, 4-chloro-1-(4-chlorophenyl)-5-(2,3,6-trifluorophenyl)-1H-imidazole-2-carbonitrile] |  |  |  |  |  |  |  |  |  |  |  |  | pest or weed control at 200 ppm ([1]; Blumeria graminis, 168 h, 200 ppm, 0 = no control relative to controls): 100%; pest or weed control at 200 ppm ([2]; Puccinia recondita, 168 h, 200 ppm, 0 = no control relative to controls): 96%; pest or weed control at 200 ppm ([3]; Botrytis cinerea, 120 h, 200 ppm, 0 = no control relative to controls): 84%; pest or weed control at 200 ppm ([4]; Parastagonospora nodorum, 264 h, 200 ppm, 0 = no control relative to controls): 0%; pest or weed control at 200 ppm ([5]; Zymoseptoria tritici, 504 h, 200 ppm, 0 = no control relative to controls): 87%; pest or weed control at 200 ppm ([6]; Alternaria solani, 168 h, 200 ppm, 0 = no control relative to controls): 99% |
| Cc1ncn(-c2ccc(Cl)c(F)c2)c1-c1ccncc1 [compound 253] | 0 | 74 | 94 | 0 | 91 | 0 |  |  |  |  |  |  |  |
| COc1nc(Cl)c(-c2c(Cl)nc(Cl)n2-c2ccc(Cl)c(F)c2)s1 [compound 456] |  |  |  |  |  |  | 43 | 0 | 0 | 0 | 88 | 0 |  |

— US20110045101A1, “FUNGICIDAL SUBSTITUTED AZOLES” (E.I. Du Pont De Nemours and Company, priority 2009, published 2011)
